Test system: castrated male cynomolguses
Assay: Serum DHEA and testosterone in castrated male cynomolguses after repeated oral administration (RIA)
Format: in vivo
Conditions: castrated male cynomolgus, 7.5 or 15 mg/kg/dose oral, twice a day for one week
Procedure: (+)-6-(7-Hydroxy-6,7-dihydro-5H-pyrrolo[1,2-c]imidazol-7-yl)-N-methyl-2-naphthamide was used as a test compound belonging to compound (I′). For oral administration, the test compound was weighed and placed in a mortar, 0.5% methylcellulose solution was added thereto, and the mixture was sufficiently admixed with a pestle to give a suspension.
6 to 12-year-old castrated male cynomolguses were divided into two groups (7.5 mg/kg/time test compound administration group and 15 mg/kg/time test compound administration group) each including 3 cynomolguses such that blood DHEA concentration would be impartial. The test compound was repeatedly administered orally twice a day (bid) for one week. Blood samples were collected twice a day from 3 days prior to the administration through the final day of administration. Vehicle (0.5% methylcellulose) was administered about one month after the completion of administration, and blood samples were collected according to the same schedule. Serum DHEA and serum testosterone concentrations were measured by RIA (radioimmunoassay).
The serum DHEA concentrations of the test compound administration group are shown in FIG. 1, and the serum DHEA concentrations of the vehicle administration group where vehicle was administered about a month after completion of the administration of the test compound are shown in FIG. 2. […]

Structure (SMILES): CNC(=O)c1ccc2cc(C3(O)CCn4cncc43)ccc2c1 (single isomer, unassigned; (+)) [test compound, (+)-6-(7-Hydroxy-6,7-dihydro-5H-pyrrolo[1,2-c]imidazol-7-yl)-N-methyl-2-naphthamide]
- serum DHEA concentration (FIG. 1, maintained at low levels during the administration period): decreased
- serum testosterone concentration (FIG. 3, maintained at low levels during the administration period): decreased
